Measured values as given in patent US20200206139A1, “COMPOSITIONS FOR THE IMPROVED DELIVERY OF DRUGS” (BOARD OF REGENTS, THE UNIVERSITY OF TEXAS SYSTEM, priority 2017, published 2020).
≈ marks a conversion by molar mass, not a printed value.

Assays:
[1] = Atovaquone solubility in pharmaceutical excipients; type: physicochemical; conditions: thermodynamic from solid
[2] = Atovaquone solubility in pharmaceutical excipients; type: physicochemical; conditions: thermodynamic from solid; remark: listed apart in the source
Protocol: Excess atovaquone (100 mg/mL) (Molekula, Irvine, Calif.) was added to each of the following excipients: Benzyl Benzoate, Tween 20, Tween 80, PEG 200, PEG 400, Labrafac, Labrafil, Capryol, Capmul, Captex, Propylene Glycol and Isopropyl Palmitate. The mixtures were shaken at 100 RPM at 37° C. for 48 hours. Each individual sample was centrifuged at 3000 RPM for 10 minutes. The supernatant was then filtered through a 0.45 μm PTFE filter. Quantification of atovaquone content in the filtrate was performed using a Dionex HPLC (Thermo Fisher Scientific Inc., Waltham, Mass.) with an Inertsil® ODS-2 column (5 μm, 4.6×250 mm) with a mobile phase 0.1% TFA ACN: 0.1% TFA H2O (80:20) at flow rate of 2 mL/min and a run time of 10 minutes.

solubility at 48 h ([1]; Capmul (neat excipient), oil or lipid, in Capmul, 37° C.): 3470 µg/mL (≈ 9.46 mM)
solubility at 48 h ([1]; Captex (neat excipient), oil or lipid, in Captex, 37° C.): 4590 µg/mL (≈ 12.5 mM)
solubility at 48 h ([1]; Labrafac (neat excipient), oil or lipid, in Labrafac, 37° C.): 4080 µg/mL (≈ 11.1 mM)
solubility at 48 h ([1]; Propylene Glycol (neat excipient), organic solvent or mixture, in Proplylene Gycol, 37° C.): 380 µg/mL (≈ 1.04 mM)
solubility at 48 h ([1]; Tween 80 (neat excipient), organic solvent or mixture, in Tween 80, 37° C.): 10200 µg/mL (≈ 27.9 mM)
solubility at 48 h ([2]; Benzyl Benzoate (neat excipient), organic solvent or mixture, in Benzyl Benzoate, 37° C.): 14300 µg/mL (≈ 39 mM)
solubility at 48 h ([2]; Capryol (neat excipient), oil or lipid, in Capryol, 37° C.): 5540 µg/mL (≈ 15.1 mM)
solubility at 48 h ([2]; Isopropyl Palmitate (neat excipient), oil or lipid, in Isopropyl Palmitate, 37° C.): 2460 µg/mL (≈ 6.71 mM)
solubility at 48 h ([2]; Labrafil (neat excipient), oil or lipid, in Labrafil, 37° C.): 3980 µg/mL (≈ 10.8 mM)
solubility at 48 h ([2]; Labrasol (neat excipient), organic solvent or mixture, in Labrasol, 37° C.): 10200 µg/mL (≈ 27.9 mM)
solubility at 48 h ([2]; PEG 200 (neat excipient), organic solvent or mixture, in PEG 200, 37° C.): 4780 µg/mL (≈ 13 mM)
solubility at 48 h ([2]; PEG 400 (neat excipient), organic solvent or mixture, in PEG 400, 37° C.): 7220 µg/mL (≈ 19.7 mM)
solubility at 48 h ([2]; Tween 20 (neat excipient), organic solvent or mixture, in Tween 20, 37° C.): 9690 µg/mL (≈ 26.4 mM)
Compound: O=C1C(O)=C([C@H]2CC[C@H](c3ccc(Cl)cc3)CC2)C(=O)c2ccccc21 [atovaquone]
